Measured values: EP4603105A1, “PHARMACEUTICAL COMPOSITION CONTAINING CYCLIC COMPOUND HAVING SELECTIVE KRAS INHIBITORY EFFECT AGAINST HRAS AND NRAS” (CHUGAI SEIYAKU KABUSHIKI KAISHA, priority 2022, dated 2024)
Where a SMILES comes first, the peptide text is derived from it. Bridges are numbered along the chain shown (N, C = ends). [ ]: non-standard residue; d: D form. The star is where a group is joined. hPhe(3,5-F2-4-CF3) = N[C@@H](CCc1cc(F)c(C(F)(F)F)c(F)c1)C(=O)O; NPrPhe(4-CF3) = CCCN[C@@H](Cc1ccc(C(F)(F)F)cc1)C(=O)O; NMeGly(cPent) = CN[C@H](C(=O)O)C1CCCC1; NMeD = CN[C@@H](CC(=O)O)C(=O)O; NMeL = CN[C@@H](CC(C)C)C(=O)O; αMeL = CC(C)C[C@](C)(N)C(=O)O; Morpholide = C1CN(*)CCO1; Aze = O=C(O)[C@@H]1CCN1; Sar = CNCC(=O)O

Legend:
HRAS wild-type protein = HRAS wild-type protein (Homo sapiens, UniProt P01112); experiment: Binding to HRAS by surface plasmon resonance (SPR), KD and KD ratio to KRAS
Summary of the method: (§1)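 Single-cycle kinetics on GDP-loaded biotin-Avi RAS captured to ~100–300 RU; 75 s ascending injections, 100 µL/min, 30°C. HBS pH 7.4 + 10 mM MgCl2/10 µM GDP/4% DMSO. 1:1 fit, KD.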

[1] = target: GDP-bound NRAS wild-type protein (Homo sapiens, UniProt P01111); experiment: Binding to NRAS by surface plasmon resonance (SPR), KD and KD ratio to KRAS
Summary of the method: as §1

[2] = target: GDP-bound KRAS wild-type protein (Homo sapiens, UniProt P01116); experiment: Binding to KRAS by surface plasmon resonance (SPR), dissociation constant KD
Summary of the method: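 Running buffer contained 10 µM GDP and 10 mM MgCl2 to keep RAS in the GDP state, with 4% DMSO at pH 7.4. Compounds were flowed at 100 µL/min in 75 s steps of rising concentration over captured biotin-Avi RAS at 30°C. Sensorgrams were fitted 1:1 for KD.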

[3] = test system: human lung cancer strain NCI-H441; assay type: cell-based
Summary of the method: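 Proliferation was scored by […] measured after the reagent was added to cultures kept at 37°C in 5% carbon dioxide.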

[4] = ratio of KD for HRAS wild-type protein to KD for KRAS
[5] = ratio of KD for GDP-bound NRAS wild-type protein to KD for KRAS

Chain of GDP-bound NRAS wild-type protein (P01111 whole entry): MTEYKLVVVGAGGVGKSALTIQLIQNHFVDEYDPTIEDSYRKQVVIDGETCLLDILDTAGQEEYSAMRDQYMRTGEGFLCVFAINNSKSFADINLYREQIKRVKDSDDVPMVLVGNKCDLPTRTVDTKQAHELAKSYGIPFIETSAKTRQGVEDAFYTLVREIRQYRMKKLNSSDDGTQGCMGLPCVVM
Chain of GDP-bound KRAS wild-type protein (P01116 1-188 isoform P01116-2): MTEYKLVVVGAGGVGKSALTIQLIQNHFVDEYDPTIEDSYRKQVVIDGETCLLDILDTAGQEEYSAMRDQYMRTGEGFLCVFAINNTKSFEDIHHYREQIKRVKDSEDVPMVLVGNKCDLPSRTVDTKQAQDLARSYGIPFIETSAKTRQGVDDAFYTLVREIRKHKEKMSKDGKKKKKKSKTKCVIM
Chain of HRAS wild-type protein (P01112 whole entry): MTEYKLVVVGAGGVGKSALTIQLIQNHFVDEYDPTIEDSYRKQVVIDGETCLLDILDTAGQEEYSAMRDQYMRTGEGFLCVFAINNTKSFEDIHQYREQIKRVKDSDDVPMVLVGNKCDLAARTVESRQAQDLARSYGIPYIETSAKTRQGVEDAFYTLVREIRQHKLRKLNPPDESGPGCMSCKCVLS

Row | Structure (SMILES) | HRAS /KRAS (HRAS wild-type protein; [4]) | NRAS /KRAS [1, 5] | Kd ([2]; 1:1 binding model) | IC50 [3] | Kd ([2]; Single Cycle Kinetics) | HRAS /KRAS (HRAS wild-type protein; ratio of KD value for HRAS wild-type protein to KD value for KRAS (SPR)) | NRAS /KRAS ([1]; ratio of KD value for GDP-bound NRAS wild-type protein to KD value for KRAS (SPR)) | Kd ([2]; Single Cycle Kinetics, 1:1 binding model)
1 | CCO[C@@H]1C[C@H]2C(=O)NC3(CC(C)(C)C3)C(=O)N(C)[C@@H](C3CCCC3)C(=O)N(C)[C@H](C(=O)N(C)C)CC(=O)N(C)[C@@H]([C@H](C)OC)C(=O)N[C@@H]([C@@H](C)CC)C(=O)N(C3CC3)CC(=O)N(C)[C@H]3C/C=C\CCN(C3=O)[C@@H](Cc3ccc(C)cc3)C(=O)N(C)CC(=O)N[C@@H](CCc3ccc(C(F)(F)F)c(OC)c3)C(=O)N2C1 [PP3191] | A (a compound having 10 or more and less than 20 is denoted as A) | A (a compound having 10 or more and less than 20 is denoted as A) | 0.49 nM | 38.9 nM |  |  |  | 
2 | CCC(CC)[C@H]1C(=O)N(C)[C@H](C(=O)N(C)C)CC(=O)N(C)[C@@H](COC)C(=O)N[C@@H]([C@@H](C)CC)C(=O)N(C)CC(=O)N(C)[C@H]2C/C=C\CCN(C2=O)[C@@H](Cc2ccc(C)cc2)C(=O)N(C)CC(=O)N[C@@H](CCc2ccc(Cl)c(Cl)c2)C(=O)N2C[C@H](OC(C)C)C[C@H]2C(=O)N(C)C2(CC(C)(C)C2)C(=O)N1C [PP2814] | A (a compound having 10 or more and less than 20 is denoted as A) | AA (a compound having 20 or more is denoted as AA) | 0.37 nM | 44.4 nM |  |  |  | 
3 | CCO[C@@H]1C[C@H]2C(=O)NC3(CCC3)C(=O)N(C)[C@@H](C3CCCC3)C(=O)N(C)[C@H](C(=O)N3C4CCC3COC4)CC(=O)N(C)[C@@H](CC)C(=O)N[C@@H]([C@@H](C)CC)C(=O)N(C)CC(=O)N(C)[C@H]3C/C=C\CCN(C3=O)[C@@H](Cc3ccc(C(F)(F)F)cc3)C(=O)N(C)CC(=O)N[C@@H](CCc3cc(F)c(C(F)(F)F)c(F)c3)C(=O)N2C1 [PP1093] | A (a compound having 10 or more and less than 20 is denoted as A) | AA (a compound having 20 or more is denoted as AA) |  | 78.7 nM | 0.58 nM |  |  | 
4 | CCO[C@@H]1C[C@H]2C(=O)NC3(CC(C)(C)C3)C(=O)N(C)[C@@H](C3CCCC3)C(=O)N(C)[C@H](C(=O)N(C)CC)CC(=O)N(C)[C@@H](CC(C)C)C(=O)N[C@@H]([C@@H](C)CC)C(=O)N(C)CC(=O)N(C)[C@H]3C/C=C\CCN(C3=O)[C@@H](Cc3ccc(C(F)F)cc3)C(=O)N(C)CC(=O)N[C@@H](CCc3ccc(C(F)(F)F)c(C4CC4)c3)C(=O)N2C1 [PP3151] | A (a compound having 10 or more and less than 20 is denoted as A) | A (a compound having 10 or more and less than 20 is denoted as A) | 0.23 nM | 18.6 nM |  |  |  | 
5 | CCCN1C(=O)CN(C)C(=O)[C@@H]2CCN2C(=O)[C@H]([C@@H](C)CC)NC(=O)[C@H](CC(C)C)N(C)C(=O)C[C@@H](C(=O)N2CCOCC2)N(C)C(=O)[C@H](C2CCCC2)N(C)C(=O)[C@](C)(CC(C)C)NC(=O)[C@@H]2CCCN2C(=O)[C@H](CCc2cc(F)c(C(F)(F)F)c(F)c2)NC(=O)CN(C)C(=O)[C@@H]1Cc1ccc(C(F)(F)F)cc1 [PP0776] ([NMeL]I[Aze][Sar][NPrPhe(4-CF3)][Sar][hPhe(3,5-F2-4-CF3)]P[αMeL][NMeGly(cPent)][NMeD]-Morpholide; lactam N-11) | B (a compound having 3 or more and less than 10 is denoted as B) | B (a compound having 3 or more and less than 10 is denoted as B) |  | 591 nM | 15 nM |  |  | 
6 | CCO[C@@H]1C[C@H]2C(=O)NC3(CC(C)(C)C3)C(=O)N(C)[C@@H](C3CCCC3)C(=O)N(C)[C@H](C(=O)N(C)C)CC(=O)N(C)[C@@H]([C@@H](C)OC)C(=O)N[C@@H]([C@@H](C)CC)C(=O)N(C3CC3)CC(=O)N(C)[C@H]3C/C=C\CCN(C3=O)[C@@H](Cc3ccc(C)cc3)C(=O)N(C)CC(=O)N[C@@H](CCc3cc(F)c(C(F)(F)F)c(F)c3)C(=O)N2C1 [PP3211] | A (a compound having 10 or more and less than 20 is denoted as A) | A (a compound having 10 or more and less than 20 is denoted as A) | 0.33 nM | 19.4 nM |  |  |  | 
7 | CC[C@H](C)[C@@H]1NC(=O)[C@H](CC2CC2)N(C)C(=O)C[C@@H](C(=O)N(C)C)N(C)C(=O)[C@H](C2CCCC2)N(C)C(=O)C2(CCC2)N(C)C(=O)[C@@H]2C[C@@H](C)CN2C(=O)[C@H](CCc2cc(F)c(C(F)(F)F)c(F)c2)NC(=O)CN(C)C(=O)[C@H](Cc2ccc(C)cc2)N2CC/C=C\C[C@@H](C2=O)N(C)C(=O)[C@@H]2CCCN2C1=O [PP1801] |  |  |  | 13 nM |  | B (a compound having 3 or more and less than 10 is denoted as B) | A (a compound having 10 or more and less than 20 is denoted as A) | 0.21 nM
